Results reported in publication PMC10482267, “Safety, tolerability, pharmacokinetics, and pharmacodynamics of single and multiple doses of aficamten in healthy Chinese participants: a randomized, double-blind, placebo-controlled, phase 1 study” (Frontiers in Pharmacology, 2023).

System: healthy Chinese participants
Experiment: Safety assessments (treatment-emergent adverse events)
Format: in vivo, human
Conditions: for safety and tolerability, in words: single dose of 10 mg or 20 mg and multiple doses of 5 mg, oral
Description: Safety was evaluated based on the occurrence, frequency, and severity of adverse events (AEs). Routine clinical laboratory tests, 12‐lead ECGs, physical examinations, and vital signs (blood pressure, pulse rate, and body temperature) were performed at initial screening, day 1, during the treatment period until discharge or early termination. The AEs were monitored from the initial administration to the last follow-up after the last treatment. The AEs were assessed by the investigators with regard to severity (mild, moderate, severe, and life‐threatening) and the relationship to study treatment (reasonably or possibly related and not reasonably or not possibly related).

Compound: CCc1nc(-c2ccc3c(c2)CC[C@H]3NC(=O)c2cnn(C)c2)no1 [aficamten]
- TEAE Alanine aminotransferase increased, Number (%) of Subjects (MD 5 mg (N = 9)): 0 Number (%)
- TEAE Blood bilirubin increased, Number (%) of Subjects (MD 5 mg (N = 9)): 0 Number (%)
- TEAE Blood creatine phosphokinase increased, Events (MD 5 mg (N = 9)): 1
- TEAE Blood creatine phosphokinase increased, Number (%) of Subjects (MD 5 mg (N = 9)): 1(11.1) Number (%)
- TEAE Blood creatinine increased, Events (MD 5 mg (N = 9)): 1
- TEAE Blood creatinine increased, Number (%) of Subjects (MD 5 mg (N = 9)): 1(11.1) Number (%)
- TEAE Blood sodium decreased, Events (MD 5 mg (N = 9)): 1
- TEAE Blood sodium decreased, Number (%) of Subjects (MD 5 mg (N = 9)): 1(11.1) Number (%)
- TEAE Cardiac disorders (SOC), Number (%) of Subjects (MD 5 mg (N = 9)): 0 Number (%)
- TEAE Chest discomfort, Number (%) of Subjects (MD 5 mg (N = 9)): 0 Number (%)
- TEAE Conjugated bilirubin increased, Events (MD 5 mg (N = 9)): 2
- TEAE Conjugated bilirubin increased, Number (%) of Subjects (MD 5 mg (N = 9)): 2(22.2) Number (%)
- TEAE Gamma-glutamyltransferase increased, Number (%) of Subjects (MD 5 mg (N = 9)): 0 Number (%)
- TEAE Gastrointestinal disorders (SOC), Number (%) of Subjects (MD 5 mg (N = 9)): 0 Number (%)
- TEAE General disorders and administration site conditions (SOC), Number (%) of Subjects (MD 5 mg (N = 9)): 0 Number (%)
- TEAE Heart rate decreased, Number (%) of Subjects (MD 5 mg (N = 9)): 0 Number (%)
- TEAE Investigations (SOC), Events (MD 5 mg (N = 9)): 13
- TEAE Investigations (SOC), Number (%) of Subjects (MD 5 mg (N = 9)): 6(66.7) Number (%)
- TEAE Nausea, Number (%) of Subjects (MD 5 mg (N = 9)): 0 Number (%)
- TEAE Neutrophil count decreased, Events (MD 5 mg (N = 9)): 2
- TEAE Neutrophil count decreased, Number (%) of Subjects (MD 5 mg (N = 9)): 1(11.1) Number (%)
- TEAE Neutrophil count increased (first line, r9), Events (MD 5 mg (N = 9)): 1
- TEAE Neutrophil count increased (first line, r9), Number (%) of Subjects (MD 5 mg (N = 9)): 1(11.1) Number (%)
- TEAE Neutrophil count increased (second line, r18), Events (MD 5 mg (N = 9)): 1
- TEAE Neutrophil count increased (second line, r18), Number (%) of Subjects (MD 5 mg (N = 9)): 1(11.1) Number (%)
- TEAE Rash, Events (MD 5 mg (N = 9)): 1
- TEAE Rash, Number (%) of Subjects (MD 5 mg (N = 9)): 1(11.1) Number (%)
- TEAE Skin and subcutaneous tissue disorders (SOC), Events (MD 5 mg (N = 9)): 1
- TEAE Skin and subcutaneous tissue disorders (SOC), Number (%) of Subjects (MD 5 mg (N = 9)): 1(11.1) Number (%)
- TEAE Systolic blood pressure decreased, Events (MD 5 mg (N = 9)): 3
- TEAE Systolic blood pressure decreased, Number (%) of Subjects (MD 5 mg (N = 9)): 2(22.2) Number (%)
- TEAE Ventricular hypokinesia, Number (%) of Subjects (MD 5 mg (N = 9)): 0 Number (%)
- TEAE White blood cell count decreased, Number (%) of Subjects (MD 5 mg (N = 9)): 0 Number (%)
- TEAE White blood cell count increased, Events (MD 5 mg (N = 9)): 1
- TEAE White blood cell count increased, Number (%) of Subjects (MD 5 mg (N = 9)): 1(11.1) Number (%)
- TEAEs, Events (MD 5 mg (N = 9)): 14
- TEAEs, Number (%) of Subjects (MD 5 mg (N = 9)): 6(66.7) Number (%)
- TEAE Alanine aminotransferase increased, Number (%) of Subjects (SAD 10 mg (N = 6)): 0 Number (%)
- TEAE Blood bilirubin increased, Number (%) of Subjects (SAD 10 mg (N = 6)): 0 Number (%)
- TEAE Blood creatine phosphokinase increased, Number (%) of Subjects (SAD 10 mg (N = 6)): 0 Number (%)
- TEAE Blood creatinine increased, Number (%) of Subjects (SAD 10 mg (N = 6)): 0 Number (%)
- TEAE Blood sodium decreased, Number (%) of Subjects (SAD 10 mg (N = 6)): 0 Number (%)
- TEAE Cardiac disorders (SOC), Events (SAD 10 mg (N = 6)): 1
- TEAE Cardiac disorders (SOC), Number (%) of Subjects (SAD 10 mg (N = 6)): 1(16.7) Number (%)
- TEAE Chest discomfort, Number (%) of Subjects (SAD 10 mg (N = 6)): 0 Number (%)
- TEAE Conjugated bilirubin increased, Number (%) of Subjects (SAD 10 mg (N = 6)): 0 Number (%)
- TEAE Gamma-glutamyltransferase increased, Number (%) of Subjects (SAD 10 mg (N = 6)): 0 Number (%)
- TEAE Gastrointestinal disorders (SOC), Number (%) of Subjects (SAD 10 mg (N = 6)): 0 Number (%)
- TEAE General disorders and administration site conditions (SOC), Number (%) of Subjects (SAD 10 mg (N = 6)): 0 Number (%)
- TEAE Heart rate decreased, Number (%) of Subjects (SAD 10 mg (N = 6)): 0 Number (%)
- TEAE Investigations (SOC), Events (SAD 10 mg (N = 6)): 2
- TEAE Investigations (SOC), Number (%) of Subjects (SAD 10 mg (N = 6)): 1(16.7) Number (%)
- TEAE Nausea, Number (%) of Subjects (SAD 10 mg (N = 6)): 0 Number (%)
- TEAE Neutrophil count decreased, Events (SAD 10 mg (N = 6)): 1
- TEAE Neutrophil count decreased, Number (%) of Subjects (SAD 10 mg (N = 6)): 1(16.7) Number (%)
- TEAE Neutrophil count increased (first line, r9), Number (%) of Subjects (SAD 10 mg (N = 6)): 0 Number (%)
- TEAE Neutrophil count increased (second line, r18), Number (%) of Subjects (SAD 10 mg (N = 6)): 0 Number (%)
- TEAE Rash, Number (%) of Subjects (SAD 10 mg (N = 6)): 0 Number (%)
- TEAE Skin and subcutaneous tissue disorders (SOC), Number (%) of Subjects (SAD 10 mg (N = 6)): 0 Number (%)
- TEAE Systolic blood pressure decreased, Number (%) of Subjects (SAD 10 mg (N = 6)): 0 Number (%)
- TEAE Ventricular hypokinesia, Events (SAD 10 mg (N = 6)): 1
- TEAE Ventricular hypokinesia, Number (%) of Subjects (SAD 10 mg (N = 6)): 1(16.7) Number (%)
- TEAE White blood cell count decreased, Events (SAD 10 mg (N = 6)): 1
- TEAE White blood cell count decreased, Number (%) of Subjects (SAD 10 mg (N = 6)): 1(16.7) Number (%)
- TEAE White blood cell count increased, Number (%) of Subjects (SAD 10 mg (N = 6)): 0 Number (%)
- TEAEs, Events (SAD 10 mg (N = 6)): 3
- TEAEs, Number (%) of Subjects (SAD 10 mg (N = 6)): 1(16.7) Number (%)
- TEAE Alanine aminotransferase increased, Number (%) of Subjects (SAD 20 mg (N = 6)): 0 Number (%)
- TEAE Blood bilirubin increased, Events (SAD 20 mg (N = 6)): 1
- TEAE Blood bilirubin increased, Number (%) of Subjects (SAD 20 mg (N = 6)): 1(16.7) Number (%)
- TEAE Blood creatine phosphokinase increased, Number (%) of Subjects (SAD 20 mg (N = 6)): 0 Number (%)
- TEAE Blood creatinine increased, Number (%) of Subjects (SAD 20 mg (N = 6)): 0 Number (%)
- TEAE Blood sodium decreased, Number (%) of Subjects (SAD 20 mg (N = 6)): 0 Number (%)
- TEAE Cardiac disorders (SOC), Number (%) of Subjects (SAD 20 mg (N = 6)): 0 Number (%)
- TEAE Chest discomfort, Events (SAD 20 mg (N = 6)): 2
- TEAE Chest discomfort, Number (%) of Subjects (SAD 20 mg (N = 6)): 1(16.7) Number (%)
- TEAE Conjugated bilirubin increased, Events (SAD 20 mg (N = 6)): 2
- TEAE Conjugated bilirubin increased, Number (%) of Subjects (SAD 20 mg (N = 6)): 2(33.3) Number (%)
- TEAE Gamma-glutamyltransferase increased, Number (%) of Subjects (SAD 20 mg (N = 6)): 0 Number (%)
- TEAE Gastrointestinal disorders (SOC), Events (SAD 20 mg (N = 6)): 1
- TEAE Gastrointestinal disorders (SOC), Number (%) of Subjects (SAD 20 mg (N = 6)): 1(16.7) Number (%)
- TEAE General disorders and administration site conditions (SOC), Events (SAD 20 mg (N = 6)): 2
- TEAE General disorders and administration site conditions (SOC), Number (%) of Subjects (SAD 20 mg (N = 6)): 1(16.7) Number (%)
- TEAE Heart rate decreased, Events (SAD 20 mg (N = 6)): 2
- TEAE Heart rate decreased, Number (%) of Subjects (SAD 20 mg (N = 6)): 1(16.7) Number (%)
- TEAE Investigations (SOC), Events (SAD 20 mg (N = 6)): 7
- TEAE Investigations (SOC), Number (%) of Subjects (SAD 20 mg (N = 6)): 4(66.7) Number (%)
- TEAE Nausea, Events (SAD 20 mg (N = 6)): 1
- TEAE Nausea, Number (%) of Subjects (SAD 20 mg (N = 6)): 1(16.7) Number (%)
- TEAE Neutrophil count decreased, Number (%) of Subjects (SAD 20 mg (N = 6)): 0 Number (%)
- TEAE Neutrophil count increased (first line, r9), Number (%) of Subjects (SAD 20 mg (N = 6)): 0 Number (%)
- TEAE Neutrophil count increased (second line, r18), Number (%) of Subjects (SAD 20 mg (N = 6)): 0 Number (%)
- TEAE Rash, Number (%) of Subjects (SAD 20 mg (N = 6)): 0 Number (%)
- TEAE Skin and subcutaneous tissue disorders (SOC), Number (%) of Subjects (SAD 20 mg (N = 6)): 0 Number (%)
- TEAE Systolic blood pressure decreased, Events (SAD 20 mg (N = 6)): 2
- TEAE Systolic blood pressure decreased, Number (%) of Subjects (SAD 20 mg (N = 6)): 2(33.3) Number (%)
- TEAE Ventricular hypokinesia, Number (%) of Subjects (SAD 20 mg (N = 6)): 0 Number (%)
- TEAE White blood cell count decreased, Number (%) of Subjects (SAD 20 mg (N = 6)): 0 Number (%)
- TEAE White blood cell count increased, Number (%) of Subjects (SAD 20 mg (N = 6)): 0 Number (%)
- TEAEs, Events (SAD 20 mg (N = 6)): 10
- TEAEs, Number (%) of Subjects (SAD 20 mg (N = 6)): 4(66.7) Number (%)
- deaths, SAEs, AESIs, discontinuations due to TEAEs, LVEF <50% (all cohorts): no deaths, serious adverse events (SAEs)
- severity of TEAEs (all cohorts): mild
- safety and tolerability, in words: well-tolerated
- safety and tolerability, in words (listed as Aficamten): safe and well-tolerated
